According to PubChem BioAssay AID256 (DTP/NCI, 2004):
Where “and” joins values, the source holds several entries; their conditions need not be identical. Identical values can stand only once. Toxic doses and inconclusive results are not listed. The calls were made as follows: active = survival T/C of 150% or more; inactive = T/C below 125% in these data.

Test system: CD2F1 mice, L1210 leukemia ip, survival T/C
Experiment: NCI In Vivo Anticancer Drug Screen. Data for tumor model L1210 Leukemia (intraperitoneal) in CD2F1 (CDF1) mice
Conditions: higher = longer survival
Outline: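 In this screen, transplantable tumors were grown in mice given either the compound or its vehicle. Results were expressed as the treated measurement relative to the control measurement.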

[1] = endpoint: mean survival time, dose: 100.0 mg/kg/injection, schedule: Q04DX003 (ip), vehicle: saline with Tween-80
[2] = endpoint: mean survival time, dose: 200.0 mg/kg/injection, schedule: Q04DX003 (ip), vehicle: saline with Tween-80
[3] = endpoint: mean survival time, dose: 400.0 mg/kg/injection, schedule: Q04DX003 (ip), vehicle: saline with Tween-80
[4] = endpoint: mean survival time, dose: 50.0 mg/kg/injection, schedule: Q01DX009 (ip), vehicle: saline with Tween-80
[5] = endpoint: mean survival time, dose: 100.0 mg/kg/injection, schedule: Q01DX009 (ip), vehicle: saline with Tween-80
[6] = endpoint: mean survival time, dose: 200.0 mg/kg/injection, schedule: Q01DX001 (ip), vehicle: saline with Tween-80
[7] = endpoint: mean survival time, dose: 400.0 mg/kg/injection, schedule: Q01DX001 (ip), vehicle: saline with Tween-80
[8] = endpoint: mean survival time, dose: 200.0 mg/kg/injection, schedule: Q01DX009 (ip), vehicle: saline with Tween-80
[9] = endpoint: mean survival time, dose: 400.0 mg/kg/injection, schedule: Q01DX009 (ip), vehicle: saline with Tween-80
[10] = endpoint: mean survival time, dose: 100.0 mg/kg/injection, schedule: Q01DX001 (ip), vehicle: saline
[11] = endpoint: mean survival time, dose: 200.0 mg/kg/injection, schedule: Q01DX001 (ip), vehicle: saline
[12] = endpoint: mean survival time, dose: 400.0 mg/kg/injection, schedule: Q01DX001 (ip), vehicle: saline
[13] = endpoint: mean survival time, dose: 25.0 mg/kg/injection, schedule: Q01DX009 (ip), vehicle: saline with Tween-80
[14] = endpoint: mean survival time, dose: 25.0 mg/kg/injection, schedule: Q04DX003 (ip), vehicle: saline with Tween-80
[15] = endpoint: mean survival time, dose: 50.0 mg/kg/injection, schedule: Q04DX003 (ip), vehicle: saline with Tween-80

Measured: T/C

O=C1OC(c2ccccc2)(c2ccccn2)c2ccccc21 (centres undefined)
inactive: [1] 90 % of control | [2] 88 % of control | [3] 91 % of control

CC(=O)Oc1ccc(CC2N=C(c3ccccc3)OC2=O)cc1 (centres undefined)
inactive: [4] 87 % of control | [5] 91 % of control

Cc1ccc(-c2nc(-c3ccccc3)[nH]c(=O)c2CCO)cc1
inactive: [1] 94 % of control | [2] 92 % of control | [3] 88 % of control

CC(C)OC(=O)Nc1cccc(Cl)c1F
inactive: endpoint: mean survival time, dose: 100.0 mg/kg/injection, schedule: Q01DX001 (ip), vehicle: saline with Tween-80 96 % of control | [6] 95 % of control | [7] 96 % of control

NCCN1c2ccccc2Sc2ccccc21
inactive: endpoint: mean survival time, dose: 12.5 mg/kg/injection, schedule: Q01DX009 (ip), vehicle: other 105 % of control | endpoint: mean survival time, dose: 25.0 mg/kg/injection, schedule: Q01DX009 (ip), vehicle: other 98 % of control | endpoint: mean survival time, dose: 50.0 mg/kg/injection, schedule: Q01DX009 (ip), vehicle: other 113 % of control

NC(CCC(=O)c1ccccn1)C(=O)O (centres undefined)
inactive: endpoint: mean survival time, dose: 50.0 mg/kg/injection, schedule: Q01DX009 (ip), vehicle: saline 96 % of control | endpoint: mean survival time, dose: 100.0 mg/kg/injection, schedule: Q01DX009 (ip), vehicle: saline 96 % of control | endpoint: mean survival time, dose: 100.0 mg/kg/injection, schedule: Q04DX003 (ip), vehicle: saline 96 % of control | endpoint: mean survival time, dose: 200.0 mg/kg/injection, schedule: Q01DX009 (ip), vehicle: saline 100 % of control | endpoint: mean survival time, dose: 200.0 mg/kg/injection, schedule: Q04DX003 (ip), vehicle: saline 98 % of control

Cc1cc(C)c(B(c2c(C)cc(C)cc2C)c2c(C)cc(C)cc2C)c(C)c1
inactive: [5] 100 % of control | [8] 94 % of control | [2] 90 % of control | [9] 94 % of control | [3] 96 % of control

COc1ccc(C2OC23CC(C)(C)c2ccccc2C3=O)cc1 (centres undefined)
inactive: endpoint: mean survival time, dose: 100.0 mg/kg/injection, schedule: Q01DX009 (ip), vehicle: other 107 % of control | endpoint: mean survival time, dose: 200.0 mg/kg/injection, schedule: Q01DX009 (ip), vehicle: other 100 % of control | endpoint: mean survival time, dose: 400.0 mg/kg/injection, schedule: Q01DX009 (ip), vehicle: other 91 % of control

CC12CCCC=C1N(C=O)c1ccccc12 (centres undefined)
inactive: [10] 95 % of control | [11] 100 % of control | [12] 95 % of control

CCCCCCC[CH2][Sn]1([CH2]CCCCCCC)[O]C2C(CO)OC(n3cnc4c(=O)[nH]c(N)nc43)C2[O]1 (centres undefined)
inactive: endpoint: mean survival time, dose: 1.56 mg/kg/injection, schedule: Q01DX005 (ip), vehicle: other 96 % of control | endpoint: mean survival time, dose: 3.13 mg/kg/injection, schedule: Q01DX005 (ip), vehicle: other 98 % of control | endpoint: mean survival time, dose: 6.25 mg/kg/injection, schedule: Q01DX005 (ip), vehicle: other 102 % of control | endpoint: mean survival time, dose: 12.5 mg/kg/injection, schedule: Q01DX005 (ip), vehicle: other 104 % of control and 106 % of control

Nc1ncnc2nc(C(O)C(O)C(O)C(O)CO)[nH]c12 (centres undefined)
inactive: endpoint: median survival time, dose: 12.5 mg/kg/injection, schedule: Q01DX005 (ip), vehicle: distilled water + Tween-80 98 % of control | endpoint: median survival time, dose: 25.0 mg/kg/injection, schedule: Q01DX005 (ip), vehicle: distilled water + Tween-80 98 % of control | endpoint: median survival time, dose: 50.0 mg/kg/injection, schedule: Q01DX005 (ip), vehicle: distilled water + Tween-80 100 % of control | endpoint: median survival time, dose: 100.0 mg/kg/injection, schedule: Q01DX005 (ip), vehicle: distilled water + Tween-80 97 % of control | endpoint: median survival time, dose: 200.0 mg/kg/injection, schedule: Q01DX005 (ip), vehicle: distilled water + Tween-80 98 % of control

CCOC(=O)C(C(=O)OCC)c1cc(NC(=O)c2ccccc2)ccc1NC(=O)c1ccccc1
inactive: [5] 87 % of control | [9] 93 % of control

ClC1=C(Cl)C2(Cl)C3C4CCC(C4)C3C1(Cl)C2(Cl)Cl (centres undefined)
inactive: [5] 95 % of control and 107 % of control | [8] 93 % of control and 111 % of control | [9] 96 % of control and 105 % of control

CC(=O)C(=O)C(C)=O
inactive: [1] 94 % of control | [2] 91 % of control | [3] 105 % of control

CC(C)c1ccc(C(=O)CCCCl)cc1
inactive: [5] 98 % of control | [8] 97 % of control | [9] 97 % of control

Cc1cc(C)c2c(C#N)cn(-c3ccccc3)c2n1
inactive: [10] 104 % of control | [11] 100 % of control | [12] 100 % of control

COc1ccc2c(c1)C/C(=N\O)C2=O
inactive: [13] 93 % of control | [14] 95 % of control | [4] 97 % of control | [15] 93 % of control | [1] 91 % of control

CC(C)C(=O)[O][Sn]([CH2]c1ccccc1)([CH2]c1ccccc1)[CH2]c1ccccc1
inactive: [13] 90 % of control | [14] 95 % of control | [4] 95 % of control | [15] 90 % of control | [1] 87 % of control

COc1ccc(C2OC2C(=O)O)cc1OC (centres undefined)
inactive: [1] 98 % of control | [2] 86 % of control | [3] 96 % of control

CCOC(=O)COC(=O)CN1C(=O)c2ccccc2C1=O
inactive: endpoint: mean survival time, dose: 50.0 mg/kg/injection, schedule: Q01DX001 (ip), vehicle: water 93 % of control | endpoint: mean survival time, dose: 100.0 mg/kg/injection, schedule: Q01DX001 (ip), vehicle: water 98 % of control | endpoint: mean survival time, dose: 200.0 mg/kg/injection, schedule: Q01DX001 (ip), vehicle: water 104 % of control | endpoint: mean survival time, dose: 400.0 mg/kg/injection, schedule: Q01DX001 (ip), vehicle: water 94 % of control

O=[N+]([O-])c1ccc(-n2[nH]nnc2=S)cc1
inactive: endpoint: mean survival time, dose: 12.5 mg/kg/injection, schedule: Q01DX009 (ip), vehicle: saline with Tween-80 95 % of control | [13] 93 % of control | [4] 102 % of control | endpoint: mean survival time, dose: 100.0 mg/kg/injection, schedule: Q01DX009 (ip), vehicle: acetone 95 % of control | [5] 96 % of control | endpoint: mean survival time, dose: 200.0 mg/kg/injection, schedule: Q01DX009 (ip), vehicle: acetone 94 % of control | [8] 96 % of control | [9] 93 % of control

S=c1[nH]ccn1-c1cccc(Br)c1
inactive: [5] 112 % of control | [8] 103 % of control | [9] 112 % of control

CCCCCCCCCCCCCCOc1ccc(OCCCCCCCCCCC)cc1
inactive: [6] 89 % of control | [7] 89 % of control

CC[C@@]1(O)C[C@H](OC2CC(N(C)C)C(OC3CC(O)C(OC4CC(O)C(O)C(C)O4)C(C)O3)C(C)O2)c2c(cc3c(c2O)C(=O)c2c(O)ccc(O)c2C3=O)[C@H]1C(=O)OC (some centres undefined)
inactive: endpoint: mean survival time, dose: 3.8 mg/kg/injection, schedule: Q01DX001 (ip), vehicle: other 117 % of control | endpoint: mean survival time, dose: 7.5 mg/kg/injection, schedule: Q01DX001 (ip), vehicle: other 120 % of control | endpoint: mean survival time, dose: 15.0 mg/kg/injection, schedule: Q01DX001 (ip), vehicle: other 96 % of control

Oc1ccc(C(c2ccccc2)(c2ccccc2)c2ccccc2)cc1
inactive: [5] 94 % of control | [8] 89 % of control | [9] 91 % of control
